Data as given in patent publication US20100221763A1, “Specific Acceptors for Transferases to Saccharides and Method for Obtaining and Using Same” (Health Research, Inc, priority 2005, published 2010).
“And” between values parts separate entries of the source, which are not always exact repeats. Equal entries are not always repeated. Marks after values point to notes of the source that are not given here.

Key:
[1] = biological target: T1, Rat recombinant α2,3(O)ST (Rattus norvegicus, UniProt Q11205); experiment: Sialyltransferase assay with cloned α2,3(O)ST; assay type: biochemical; settings: for Sialyltransferase activity (%) Cloned α2,3(O)ST: Table I, acceptor 7.5 mM, 100% = 40560 CPM (3-O-MeGalβ1,4GlcNAcβ1,6(Galβ1,3)GalNAcα-O-Bn); for Cloned Sialyltransferase Activities α2,3(O) ST %: Table III, compound 7.5 mM, 100% = 39200 CPM (3-O-MeGalβ1,4GlcNAcβ1,6(Galβ1,3)GalNAcα-O-Bn)
T1 construct: purchased Calbiochem
T1 sequence (Q11205 1-350): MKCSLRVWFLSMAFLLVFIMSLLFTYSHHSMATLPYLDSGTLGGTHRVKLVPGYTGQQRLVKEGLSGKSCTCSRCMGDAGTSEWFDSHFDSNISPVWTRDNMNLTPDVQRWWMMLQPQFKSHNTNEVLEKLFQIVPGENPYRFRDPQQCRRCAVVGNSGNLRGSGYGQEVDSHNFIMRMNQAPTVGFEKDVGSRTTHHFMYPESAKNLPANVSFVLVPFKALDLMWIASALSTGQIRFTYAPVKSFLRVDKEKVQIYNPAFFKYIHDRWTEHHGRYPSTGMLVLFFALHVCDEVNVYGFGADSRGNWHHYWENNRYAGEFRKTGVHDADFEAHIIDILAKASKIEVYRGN
Procedure: (§1) Rat recombinant α2,3(O)ST, α2,3(N)ST and α2,6(N)ST were purchased from Calbiochem and stored at either −20° C. or −70° C. as recommended by the supplier. […] 10 μl aliquots of the diluted enzymes were used in the assays run in duplicate.
(§2) The incubation mixtures run in duplicate contained 0.1M NaCacodylate buffer pH6.0, the acceptor (typically at 7.5 mM, or as indicated in some experiments), CMP-[9 ^3H] NeuAc (typically 0.2 μci; 20 μci/nmol or as indicated in some experiments) and the enzyme in a total volume of 20 μl. The control incubation mixtures contained everything except the acceptor. Incubation was carried out for 2 h at 37° C. The enzymatic transfer of [9-^3H] NeuAc to a typical acceptor was linear for 2 h and less than 30% CMP-[9-^3H] NeuAc was utilized. Chromatography, using either Dowex-1-Formate, Sep-Pak C18 or Biogel P2, was applied to separate radioactive product from un-reacted [9-^3H] NeuAc as described below.
(§3) The radioactive products from neutral allyl and methyl glycosides as well as non-glycosides were measured by fractionation on Dowex-1-Formate (Bio-Rad: AG-1X8; 200-400 mesh; format form) as follows: The incubation mixture was diluted with 1.0 ml water and passed through AG-1-formate column (1.0 ml bed volume in a Pasteur pipet which had been washed with 5 ml of 2M Formic acid followed by 10 ml water). The column was washed twice with 1.0 ml water after the entry of the sample and then eluted with 3.0 ml of 0.1M NaCl. The radioactivity present in water and 0.1M NaCl eluates were measured separately using 3a70 scintillation cocktail (Research Products International, Mount Prospect, Ill.) and a Beckman LS6500 scintillation counter. The CPM values were corrected by subtracting the blank CPM. Any radioactivity present in the water eluate (as noticed in the case of some methylglycosides) was added to the corresponding CPM value of 0.1M NaCl eluate. The radioactive products from sulfated and/or sialylated methylglycosides were also measured by the above procedure, only the elution of the AG-1-Formate column was continued further with 3.0 ml of 0.2M NaCl for achieving a complete elution of the radioactive product, a correction being made as before by subtracting the corresponding blank values.
(§4) The radioactive products from benzylglycosides and monosialylated benzylglycosides were measured by hydrophobic chromatography on Sep-Pak C18 cartridge (Waters, Milford, Mass.) and eluting the product with 3.0 ml methanol (30). The radioactivity was determined by liquid scintillation as above.
(§5) For such work, a Biogel P2 column (Fine Mesh; 1.0×116.0 cm) was used with 0.1M pyridine acetate pH5.4 as the eluent at room temperature. The effluent fractions were monitored for radioactivity and the first peak containing radioactivity was collected, lyophilized to dryness, dissolved in 200 μl of water and stored frozen at −20° C. for thin layer chromatography (TLC) and other experimentation.

LNCaP α2,3(O)ST = experiment: Sialyltransferase assay with LNCaP cell extract; assay type: biochemical, human; settings: for Sialyltransferase activity (%) LNCaP α2,3(O)ST: Table I, acceptor 7.5 mM, 100% = 30930 CPM (3-O-MeGalβ1,4GlcNAcβ1,6(Galβ1,3)GalNAcα-O-Bn); for LNCaPα2,3(O)ST %: Table III, compound 7.5 mM, 100% = 30100 CPM (3-O-MeGalβ1,4GlcNAcβ1,6(Galβ1,3)GalNAcα-O-Bn)
Procedure: The prostate carcinoma cell line, LNCaP, was grown in RPMI 1640 supplemented with 10% fetal bovine serum and antibiotics (penicillin, streptomycin and amphotericin B) under conditions recommended by American Type Culture Collection (Manassas, Va.). The cells were homogenized with 0.1M Tris-Maleate pH6.3 containing 2% Triton X-100 using a Dounce all glass hand-operated homogenizer. The homogenate was centrifuged at 16,000 g for 1 h at 4° C. Protein concentration in supernatant was measured using the BCA assay (Pierce Biotech, Inc., Rockford, Ill.), with BSA as the standard. The supernatant was adjusted to 5 mg protein/ml by adding the necessary amount of extraction buffer and then stored frozen at −20° C. until use. 10 μl aliquot of this extract was used in assays run in duplicate.
as §2, §3, §4, §5

[2] = biological target: T2, Rat recombinant α2,3(N)ST (Rattus norvegicus, UniProt Q02734); experiment: Sialyltransferase assay with cloned α2,3(N)ST; assay type: biochemical; settings: for Sialyltransferase activity (%) Cloned α2,3(N)ST: Table I, acceptor 7.5 mM, 100% = 29520 CPM (Galβ1,4GlcNAcβ-O—Al); for Cloned Sialyltransferase Activities α2,3(N) ST %: Table III, compound 7.5 mM, 100% = 38140 CPM (Galβ1,4GlcNAcβ1,6(3-O-MeGalβ1,3)GalNAcα-O-Bn)
T2 construct: purchased Calbiochem
T2 sequence (Q02734 29-374 limits assumed): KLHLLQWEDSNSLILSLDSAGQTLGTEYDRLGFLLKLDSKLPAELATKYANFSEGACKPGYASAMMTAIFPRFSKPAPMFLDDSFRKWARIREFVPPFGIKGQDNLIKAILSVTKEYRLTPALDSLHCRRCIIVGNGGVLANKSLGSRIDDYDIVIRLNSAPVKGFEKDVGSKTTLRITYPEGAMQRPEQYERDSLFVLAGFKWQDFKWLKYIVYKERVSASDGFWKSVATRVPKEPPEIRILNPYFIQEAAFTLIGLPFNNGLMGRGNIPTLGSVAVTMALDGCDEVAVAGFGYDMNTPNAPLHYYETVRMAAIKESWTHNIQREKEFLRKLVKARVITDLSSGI
Procedure: as §1, §2, §3, §4, §5

[3] = biological target: T3, Rat recombinant α2,6(N)ST (Rattus norvegicus, UniProt P13721); experiment: Sialyltransferase assay with cloned α2,6(N)ST; assay type: biochemical; settings: for Sialyltransferase activity (%) Cloned α2,6(N)ST: Table I, acceptor 7.5 mM, 100% = 43500 CPM (Galβ1,4GlcNAcβ-O—Al); for Cloned Sialyltransferase Activities α2,6(N)ST %: Table III, compound 7.5 mM, 100% = 30440 CPM (Galβ1,4GlcNAcβ1,6(3-O-MeGalβ1,3)GalNAcα-O-Bn)
T3 construct: purchased Calbiochem
T3 sequence (P13721 1-403): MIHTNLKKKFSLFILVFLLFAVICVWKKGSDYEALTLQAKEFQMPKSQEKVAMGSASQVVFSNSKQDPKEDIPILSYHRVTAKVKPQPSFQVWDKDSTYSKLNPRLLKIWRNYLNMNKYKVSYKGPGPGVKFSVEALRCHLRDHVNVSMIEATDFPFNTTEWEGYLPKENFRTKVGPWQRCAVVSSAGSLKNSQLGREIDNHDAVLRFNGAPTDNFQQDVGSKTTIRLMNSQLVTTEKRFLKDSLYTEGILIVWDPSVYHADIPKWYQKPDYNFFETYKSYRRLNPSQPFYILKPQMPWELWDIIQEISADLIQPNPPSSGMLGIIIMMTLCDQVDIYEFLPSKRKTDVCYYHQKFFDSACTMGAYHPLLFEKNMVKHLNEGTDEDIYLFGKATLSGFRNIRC
Procedure: as §1, §2, §3, §4, §5

| SMILES | Sialyltransferase activity (%) Cloned α2,3(O)ST [1] | Cloned Sialyltransferase Activities α2,3(O) ST % [1] | Sialyltransferase activity (%) LNCaP α2,3(O)ST (LNCaP α2,3(O)ST) | LNCaPα2,3(O)ST % (LNCaP α2,3(O)ST) | Sialyltransferase activity (%) Cloned α2,3(N)ST [2] | Cloned Sialyltransferase Activities α2,3(N) ST % [2] | Sialyltransferase activity (%) Cloned α2,6(N)ST [3] | Cloned Sialyltransferase Activities α2,6(N)ST % [3] | α2,3(N)ST activity compared to Galβ1,4GlcNAcβ1,6(Galβ1,3)GalNAcα-O-Bn (FIG. 3B) ([2]; lowest concentration tested, 0.05 mM) | α2,3(N)ST activity compared to Galβ1,4GlcNAcβ1,6(Galβ1,3)GalNAcα-O-Bn (FIG. 3B) ([2]; maximum concentration tested, 0.25 mM) | α2,6(N)ST activity at varying acceptor concentration (FIG. 3A) ([3]; maximum concentration tested, 0.75 mM) | Sialyltransferase activity (%) Cloned α2,3(N)ST ([2]; listed as Galβ1,4(6-O-Sulfo)GlcNAcβ1,6(Galβ1,3)GalNAcα-) [%] |
| --- | --- | --- | --- | --- | --- | --- | --- | --- | --- | --- | --- | --- |
| CO[C@H]1[C@@H](O)[C@@H](CO)O[C@@H](O[C@H]2[C@H](O)[C@@H](NC(C)=O)[C@H](OC[C@H]3O[C@H](OCc4ccccc4)[C@H](NC(C)=O)[C@@H](O[C@@H]4O[C@H](CO)[C@H](O)[C@H](O)[C@H]4O)[C@H]3O)O[C@@H]2CO)[C@@H]1O [3-O-MeGalβ1,4GlcNAcβ1,6(Galβ1,3)GalNAcα-O-Bn] | 100.0% and 100.0^c % | 100.0^c % | 100.9% and 100.0% and 100.0^d % | 100.0^d % | 6.1% | 4.5% | 4.4% | 6.4% |  |  |  |  |
| CO[C@@H]1[C@H](O)[C@@H](O)[C@H](O[C@H]2[C@H](O)[C@@H](NC(C)=O)[C@H](OC[C@H]3O[C@H](OCc4ccccc4)[C@H](NC(C)=O)[C@@H](O[C@@H]4O[C@H](CO)[C@H](O)[C@H](O)[C@H]4O)[C@H]3O)O[C@@H]2CO)O[C@@H]1CO [4-O-MeGalβ1,4GlcNAcβ1,6(Galβ1,3)GalNAcα-O-Bn] |  | 103.0% |  | 97.1% |  | 99.8% |  | 12.6% | four fold | two-fold | almost inactive |  |
| C=CCOC1OC(CO)C(O)C(OC2OC(CO)C(O)C(O)C2O)C1NC(C)=O (stereo not drawn) [Galβ1,3GlcNAcβ-O—Al] | 42.1% |  | 3.7% |  | 123.1% |  | 3.0% |  |  |  |  |  |
| CO[C@H]1O[C@H](CO[C@@H]2O[C@H](COS(=O)(=O)O)[C@@H](O[C@@H]3O[C@H](CO)[C@H](O)[C@H](O)[C@H]3O)[C@H](O)[C@H]2NC(C)=O)[C@H](O)[C@H](O[C@@H]2O[C@H](CO)[C@H](O)[C@H](O)[C@H]2O)[C@H]1NC(C)=O [Galβ1,4(6-O-Sulfo)GlcNAcβ1,6(Galβ1,3)GalNAcα-O-Me] | 27.2% |  | 14.8% |  | 28.1% and 28.1^21% |  | 30.6^17% |  |  |  |  | 28.1 |
| CC(=O)N[C@H]1[C@H](OC[C@H]2O[C@H](OCc3ccccc3)[C@H](NC(C)=O)[C@@H](O[C@@H]3O[C@H](CO)[C@H](O)[C@H](F)[C@H]3O)[C@H]2O)O[C@H](CO)[C@@H](O[C@@H]2O[C@H](CO)[C@H](O)[C@H](O)[C@H]2O)[C@@H]1O [Galβ1,4GlcNAcβ1,6(3-FGalβ1,3)GalNAcα-O-Bn] |  | 77.2% |  | 1.7% |  | 96.9^25% |  | 77.7^19% |  |  |  |  |
| CO[C@H]1[C@@H](O)[C@@H](CO)O[C@@H](O[C@H]2[C@@H](O)[C@@H](CO[C@@H]3O[C@H](CO)[C@@H](O[C@@H]4O[C@H](CO)[C@H](O)[C@H](O)[C@H]4O)[C@H](O)[C@H]3NC(C)=O)O[C@H](OCc3ccccc3)[C@@H]2NC(C)=O)[C@@H]1O [Galβ1,4GlcNAcβ1,6(3-O-MeGalβ1,3)GalNAcα-O-Bn] | 49.6% | 49.6% | 3.0% | 3.0% | 95.3% | 100.0^b % | 97.7% | 100.0^a % |  |  |  |  |
